# pIC50: −log10 of the molar value. Calls of active or inactive are those of the source. No rule for the calls is given here.
# Columns and labels:
# [1] = biological target: BoNT/ALC; experiment: confirmation, biochemical, FRET, cleavage-site specific substrates (AID 651691); conditions: FRET protease cleavage assay, BoNT/A LC or LF
# [2] = biological target: LF; experiment: as above; conditions: FRET protease cleavage assay, BoNT/A LC or LF
SMILES,pIC50 [1],IC50 [2],IC50 [1]
COc1ccccc1N1N=C(c2ccc([N+](=O)[O-])cc2)CC1c1ccccc1 (stereo not given),6.70,,
Cc1ccc(-c2cn3nc(-c4ccccc4)c(-c4ccccc4)nc3n2)cc1,6.52,inactive,
O=C(Nc1ccc2nc(-c3cccs3)c(-c3cccs3)nc2c1)NC1CC1,,inactive,> 20000 nM (inactive)
O=[N+]([O-])c1ccc(N2N=C(c3ccccc3)CC2c2ccccc2)cc1 (stereo not given),6.00,,
O=C(Nc1ccc2nc(-c3cccs3)c(-c3cccs3)nc2c1)N1CCCCC1,5.92,,
COc1ccc(-c2cn3nc(-c4ccccc4)c(-c4ccccc4)nc3n2)cc1,6.30,inactive,
O=[N+]([O-])c1ccc(C2=NN(c3ccccc3)C(c3ccco3)C2)cc1 (stereo not given),,,> 20000 nM (inactive)
c1ccc(-c2cn3nc(-c4ccccc4)c(-c4ccccc4)nc3n2)cc1,6.30,,
COc1ccc(C2CC(c3cccs3)=NN2c2nc(C)c(C(C)=O)s2)cc1OC (stereo not given),5.89,,
Clc1ccc(-c2cn3nc(-c4ccccc4)c(-c4ccccc4)nc3n2)cc1,6.15,inactive,
O=C(Nc1ccc2nc(-c3cccs3)c(-c3cccs3)nc2c1)N1CCOCC1,,,> 20000 nM (inactive)

# Reference: PubChem BioAssay AID651691 (NMMLSC, 2012)
